As a reminder, the EC50 is the concentration that produces a half-maximal response. As a reminder, the IC50 is the concentration needed to halve the response being measured.

Results on 72 compounds are retold here after PubChem BioAssay AID179 (DTP/NCI, 2004).

SMILES strings stand for the structures. Activity calls are given as the source filed them.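 How the source made its calls: active means compounds giving half or more protection of infected cells from virus-caused growth loss, again on retest; inactive means the rest.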

The assay has as its system CEM cells HIV-1 protection, formazan growth assay. Nature of the assay: NCI AIDS Antiviral Assay. The conditions noted are these: for IC50: measured here: growth of uninfected CEM cells. The method, boiled down:
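Protection of CEM cells against HIV-1 measured as cell growth via soluble formazan read-out, with five concentrations tested on both infected and uninfected cells; failure to protect may reflect toxicity.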

With `CCCCC1(C)C=C/C(=C2/C(=O)O/C(=C\C(=O)O)C2=O)O1` (centres undefined), the EC50 was more than 851 µM and the IC50 is more than 851 µM. As to `Clc1ccc(C2=NON(c3ncccn3)C3N=CC=CN23)cc1` (centres undefined), the EC50 was more than 15.8 µM and the IC50 is more than 15.8 µM.

In the case of `OCCN(CCO)CCCNc1ccnc2cc(Cl)ccc12`, the EC50 is more than 200 µM and the IC50 came to 18.2 µM. Taken in the same sequence, the figures for `C[N+]12CN3CN(C1)CP(=O)(C3)C2` were more than 794 µM and 115 µM.

As for `O=[N+]([O-])c1ccc(-c2cn(-c3ccc(Cl)cc3)cn2)cc1`, the EC50 is more than 100 µM and the IC50 is more than 100 µM. As for `O=C(O)c1ccc([C@@H]2C(=O)N(O)[C@@H]3C=CC[C@@H]32)cc1`, the EC50 is more than 347 µM and the IC50 is more than 347 µM. For `Cn1c2c(c(=O)c3cc(O)ccc31)CC(O)C(C)(C)O2` (centres undefined), the EC50 is more than 912 µM and the IC50 stood at 891 µM. Take `CC(=O)/C(=C/n1c(=S)[nH]c2ccccc21)C(=O)Nc1ccccc1C`: the EC50 was more than 200 µM and the IC50 was more than 200 µM.

For `O=C(Nc1cc2c(oc1=O)CCC2)c1cnccn1`, the EC50 is more than 100 µM and the half-inhibitory concentration (IC50) is more than 100 µM. Take `COC(=O)C1=COC(O)C2CCCC12` (centres undefined): the EC50 is more than 1260 µM and the IC50 worked out at 107 µM. As for `O=C1C(c2ccc(Cl)cc2)=[N+]([O-])c2ccccc21`, the result was inactive. Regarding `COc1cc2ccnc3c(=C(SC)SC)c(=O)c(c1OC)c23`, the outcome was inactive. For `CCOC(=O)c1c(SCCCN2CCCCC2)n(-c2ccccc2)c(=S)n(-c2ccccc2)c1=O`, the EC50 was more than 37.2 µM and the concentration for half-maximal inhibition (IC50) turned out to be 6.31 µM. As to `NC(N)=NS(=O)(=O)c1ccc(NC(=O)c2ccc3nc4ccccc4c(N)c3c2)cc1`, the EC50 is 102 µM and the IC50 is more than 200 µM. Consider `S=c1sc2c(Cl)ncnc2n1-c1ccccc1`, for which the EC50 was more than 67.6 µM and the IC50 came to 3.63 µM. With `CCCCCC1CC=CC(NC(=O)OCc2ccccc2)C1/C=C/CCCC1OCCO1` (centres undefined), the outcome was inactive. In the case of `CCCCCc1cc(O)cc2c1Oc1cc(O)cc(C(=O)CCCC)c1C(=O)O2`, the EC50 is more than 56.2 µM and the IC50 was 28.2 µM. As for `c1cc2sc1CSCCSCCSC2`, the EC50 is more than 38 µM and the IC50 was more than 38 µM. Consider `C#CCNC(CS)C(=O)O` (centres undefined), for which the EC50 is more than 200 µM and the IC50 was more than 200 µM. On to `COc1ccc(C2=C(Cl)c3cc(OC)c(OC)cc3C2=O)cc1OC`, for which the EC50 is more than 200 µM and the IC50 is 1.45 µM. Taken in the same sequence, the figures for `N#Cc1c(N=C/C=C/c2ccccc2)c(C(=O)Nc2ccccc2)n2c1CCC2` were more than 200 µM and more than 200 µM. Taken in the same sequence, the figures for `Cn1c(N)c(N=O)c(=O)n(C)c1=O` were more than 200 µM and more than 200 µM. The corresponding values for `COC(=O)Cc1c([C@H]2[C@H](CC(=O)OC)c3ccccc3N2C(C)=O)[nH]c2ccccc12` are more than 200 µM and 97.7 µM.

With `Cc1cc(N(CCC#N)CCC#N)ccc1/C(N=Nc1ccccc1)=N\NC(=O)c1cc(Cl)ccc1O`, the EC50 was more than 200 µM and the IC50 amounted to 28.8 µM. Regarding `N#Cc1c(N)[nH]c(S)c1C#N`, the EC50 was more than 123 µM and the half-maximal inhibitory concentration (IC50) was 72.4 µM. As for `CO[C@H]1ON=C(c2c(C)cc(C)cc2C)[C@@H]1C1(c2ccccc2)ON=C(c2c(C)cc(C)cc2C)O1` (some centres undefined), the EC50 was more than 200 µM. Consider `CN(C)CC(CN(C)C)c1cccc(C(CN(C)C)CN(C)C)n1`, for which the EC50 was more than 741 µM and the IC50 is more than 741 µM. For the compound `COc1ccc(/C=C/C(=O)OCCc2ccccc2)cc1O`, the EC50 was more than 8.32 µM and the IC50 amounted to 4.47 µM. Taken in the same sequence, the figures for `O=C1c2cccc(O)c2Cc2c(O)cc(CO)cc21` were more than 100 µM and 52.5 µM.

For the compound `CC(=O)Nc1ccc(C(=O)NN2C(=O)C(Cl)C2c2ccc([N+](=O)[O-])cc2)cc1` (centres undefined), the EC50 was more than 200 µM and the IC50 worked out at 112 µM.

Regarding `Cc1cc2c(=O)[nH]nc(N)c2c(N)n1`, the EC50 was more than 200 µM and the IC50 was more than 200 µM. Consider `COC(=O)CC(C(C(=O)OCc1ccccc1)C(C)O)N1C(=O)OCC1c1ccccc1` (centres undefined), for which the EC50 is more than 200 µM and the IC50 turned out to be 123 µM. The corresponding values for `COc1ccc(C[C@H]2COC(=O)[C@@H]2Cc2cc(OC)c(OC)c(OC)c2)cc1OC` are more than 200 µM and 115 µM. Taken in the same sequence, the figures for `CC1CNC2(c3ccccc3)CSC=C(c3ccccc3)N12` (centres undefined) were more than 200 µM and 117 µM. Taken in the same sequence, the figures for `Cc1cc(O)c(/C=N/C(=S)NCc2ccccc2)c(=O)o1` were more than 200 µM and more than 200 µM. Take `O=C1C2=C(c3ccccc31)C(c1ccccc1Cl)N1C(=O)CSC1=N2` (centres undefined): the EC50 is more than 37.2 µM and the IC50 is more than 37.2 µM. As to `CO/N=C1\CC(n2cc(C)c(=O)[nH]c2=O)OC1CO` (centres undefined), the EC50 is more than 200 µM and the IC50 was more than 200 µM. Regarding `CCSC1=N/C(=C\c2ccco2)C(Nc2ccc(C)cc2)=N1`, the EC50 is more than 50.1 µM and the IC50 was more than 50.1 µM. `O=C(Nc1cccc(C(=O)NCCCO)c1)/C(=C/c1ccccc1)NC(=O)c1ccccc1`: the EC50 was more than 200 µM and the IC50 is more than 200 µM. Regarding `COc1cc2c(cc1OC)C(CC(=O)NN=C(C)C)NCC2` (centres undefined), the EC50 is more than 813 µM and the IC50 is more than 813 µM. For the compound `CC(CC12CCC3(OO1)C(C)(C)CCCC3(C)O2)OC(=O)c1ccccc1` (centres undefined), the EC50 is more than 200 µM and the IC50 was 18.2 µM. Take `S=C(NCCNC(=S)[S][Sn]([c]1ccccc1)([c]1ccccc1)[c]1ccccc1)[S][Sn]([c]1ccccc1)([c]1ccccc1)[c]1ccccc1`: the EC50 was more than 0.1 µM and the IC50 is 0.0646 µM. Taken in the same sequence, the figures for `C=CCOc1ccc(/C(N=Nc2ccc([N+](=O)[O-])cc2)=N/NC(=O)c2ccccc2)cc1OC` were more than 200 µM and 178 µM. Taken in the same sequence, the figures for `Nc1nc2cc(CNc3ccc(C(=O)NC(CCC(=O)O)C(=O)O)cc3)ccc2nc1-c1ccccc1` (centres undefined) were more than 200 µM and 12.3 µM.

Consider `CCC1C(c2cccc(OC)c2O)c2cc3c(cc2OC1N1CCCC1)OCO3` (centres undefined), for which the EC50 is more than 200 µM and the IC50 was found to be 8.51 µM. Taken in the same sequence, the figures for `NS(=O)(=O)c1nnc(NC(=O)CCC(=O)O)s1` were more than 200 µM and more than 200 µM. For `COc1cc(C2C3=C(COC3=O)Oc3cc4c(cc32)OCO4)cc(OC)c1OC(C)=O` (centres undefined), the EC50 is more than 0.2 µM and the IC50 is 0.0324 µM. The corresponding values for `Cc1ccc(S(=O)(=O)n2ccc(-c3ccc4ccn(S(=O)(=O)c5ccc(C)cc5)c4c3)c2)cc1` are more than 200 µM and 87.1 µM. Taken in the same sequence, the figures for `CC1=NN(C(=O)c2ccc(Cl)cc2)C(=O)/C1=C/c1ccccc1O` were more than 20.9 µM and more than 20.9 µM.

On to `COc1ccc(Cn2c3ccc([N+](=O)[O-])cc3c(=O)n2Cc2ccccn2)cc1`, for which the EC50 was more than 200 µM and the IC50 was more than 200 µM. For `CCn1c2ccc(C(=O)CCCN(C)C)cc2c2cc(C(=O)CCCN(C)C)ccc21`, the EC50 is more than 380 µM and the IC50 was 0.123 µM.

Regarding `CCOc1ccccc1NC(=O)C(=O)C(C(=O)c1ccc2ccccc2c1)C1OC(=O)c2ccccc21` (centres undefined), the EC50 was more than 72.4 µM and the IC50 worked out at 31.6 µM. Take `CC(=O)N(O)Cc1ccccc1`: the EC50 was more than 1510 µM and the IC50 turned out to be 692 µM. As for `CSC1=C(SC)SC(=C2SC3=C(SC(=C4SCCS4)S3)S2)S1`, the EC50 is more than 100 µM and the IC50 was more than 100 µM. Take `O=C(Nc1nc(C23CC4CC(CC(C4)C2)C3)cs1)c1cc2cc(Cl)ccc2oc1=O`: the EC50 is more than 200 µM and the IC50 was more than 200 µM. `CC(=Nc1ccccc1C(=O)[O-])c1c([O-])ccc2c(C)cc(=O)oc12.[Co+2].[OH3+].[OH3+].[OH3+]`: the EC50 is more than 3.24 µM and the IC50 is more than 3.24 µM. As for `CC(=O)Oc1cc(OC(C)=O)c2c(=O)c(OC(C)=O)c(-c3ccc(OC(C)=O)c(OC(C)=O)c3)oc2c1`, the EC50 is more than 200 µM and the IC50 was found to be 9.33 µM. Taken in the same sequence, the figures for `C/C(CCn1[nH]c(=O)ccc1=O)=N\NC(=O)C(N)=O` were more than 676 µM and more than 676 µM. Turning to `O=C1OC(CCCN2CCCCC2)(c2ccccc2)CC12CCCC2` (centres undefined), the EC50 is more than 200 µM and the IC50 was determined as 191 µM. With `O=C1CSc2cc([N+](=O)[O-])ccc2N1`, the EC50 is more than 123 µM and the IC50 is more than 123 µM. For `O=S1(=O)CC2(N3CCCC3)CCCCC21` (centres undefined), the EC50 was more than 1100 µM and the half-inhibitory concentration (IC50) turned out to be 617 µM. Take `O=C1OCCN1CCO`: the EC50 is more than 200 µM and the IC50 was more than 200 µM. `C=C1C(=O)OC2C=CCCCC12` (centres undefined): the EC50 was more than 53.7 µM and the IC50 is 4.68 µM. In the case of `COc1ccc(C2=Nn3c(nc4sc(C)c(C)c4c3=O)SC2)cc1`, the EC50 is more than 200 µM and the IC50 was more than 200 µM.

In the case of `O=C(O)C12C(=O)NC(=O)C1(C(=O)O)C21CCCCC1` (centres undefined), the EC50 was more than 933 µM and the IC50 was more than 933 µM. As for `O=C(O)C(C(F)(F)F)C(F)(F)F` (tested in a mixture with another compound), the EC50 was more than 200 µM and the IC50 is more than 200 µM. In the case of `COc1ccc(C2OCC3C2CO[C@H]3c2ccc(OC)c(OC)c2)cc1OC` (mixture of isomers), the EC50 was more than 200 µM and the IC50 worked out at 93.3 µM.

In the case of `COCCCCCCCCCCCC(=O)OCC1OC(n2cc(C)c(=O)[nH]c2=O)CC1F` (centres undefined), the EC50 was 0.0112 µM and the IC50 is 0.2 µM. For the compound `CCCCCCc1cn([C@H]2C[C@H](O)[C@@H](CO)O2)c(=O)[nH]c1=O`, the outcome was inactive.

Regarding `Cc1cn(C2C=CC(COP(=O)(OCC(=O)c3ccccc3)OCC(=O)c3ccccc3)O2)c(=O)[nH]c1=O` (centres undefined), the EC50 is 0.851 µM and the IC50 amounted to 110 µM.

Take `CCOC(=O)C(NC(=O)CC)(Nc1cc(C)on1)C(F)(F)F` (centres undefined): the EC50 was more than 200 µM and the IC50 is more than 200 µM. Turning to `C[N+](C)(C)CC(=O)N/N=c1\cc(C(=O)Nc2ccc(N=O)cc2C#N)oc2cc(O)ccc12`, the EC50 is more than 372 µM and the IC50 was more than 372 µM.
